# Patent US20050019923A1, “Dendrimers for use in targeted delivery” (priority 2001, published 2005)
# Tested on: A431 cell line
# Assay: In vitro cytotoxicity assay (MTT)
# Type: cell-based, human
# Details: 4 h exposure, 72 h incubation
# Description: A human epidermoid carcinoma cell line (A431, ATCC CRL-1555) was maintained in Dulbecco's minimum essential medium (DMEM) supplemented with 10% foetal calf serum (FCS) and 2 mM glutamine (GibcoBRL, UK) at 10% CO2 and 37° C.
# Polypropylenimine dendrimer/dendrimer derivative formulation cytotoxicity was assessed by the measurement of the IC50 in a standard MTT (3-[4,5-dimethylthiazol-2-yl]-2,5-diphenyltetrazolium bromide thiazolyl blue—indicator dye) assay. Briefly, 96 well microtitre plates were seeded with 5000 cells per well and incubated for 24 hrs. Dilutions of the dendrimer/dendrimer—DNA formulations (100 μl) in tissue culture medium (Opti-Mem) were incubated with the cells for 4 h. The samples were then replaced with fresh DMEM daily and incubated for 72 h. After this period the indicator dye (50 μl, 50 mg ml^−1) was added to each well and incubated with the cells for 4 h in the dark. The medium and indicator dye were then removed and the cells lysed with dimethylsulphoxide (200 μl). After addition of Sorensen's glycine buffer (25 μl) the absorption was measured at 570 nm. Values were expressed as a percentage of the control to which no vesicles were added.
compound,measurement,value
"CCCCCCCC/C=C\CCCCCCCC(=O)OCC(C[N+](C)(C)C)OC(=O)CCCCCCC/C=C\CCCCCCCC.COS(=O)(=O)[O-] (stereo not shown) [DOTAP, N-[1-(2,3-dioleoyloxy)propyl]-N,N,N-trimethylammonium methylsulphate]","IC50, in vitro cytotoxicity",62 mg/L
